From patent US20260271949A1, “PHOTOSENSITIZER COMPOSITIONS, DEVICES, AND METHODS OF USE FOR SURFACE SANITIZATION OF PROCESSED FOOD PRODUCTS” (ONDINE INTERNATIONAL AG, priority 2023, published 2026) come the findings set out here.

The test system of series [1] is S. enterica biofilms. In words: MBEC (turbidity assay), biofilm recovery plate. It is filed as cell-based, Salmonella enterica. The note with it: Blue 470 nm (Erythrosin B: Green 527 nm). The procedure: (§1) The saturated bacterial cultures were diluted 1:10,000 to an approximate density of 10^5 CFU/mL. Density was confirmed by an inoculum check. The inoculum was poured into a sterile reagent reservoir. Using a multi-channel pipette, 200 μL of the ~105 inoculum was added to each well from rows A to G of the MBEC™ device, as indicated in FIGS. 2A-2C (12 devices per organism were tested; 4 devices per study day), 200 μL of OSB was added to row H to act as sterility controls (SC). The pegged lid was then placed into the microtiter plate and sealed in a plastic bag.
(§2) The pegs of the MBEC lid were rinsed for 120 seconds.
(§3) Using additional sterile 96-well receiver plates, recovery plates were prepared (one per MBEC lid) containing 225 μL per well of the neutralizer/recovery broth, as described above. The MBEC lids were transferred to the recovery broth, and the plates (with the pegged lids) were transferred into a stainless-steel insert tray, which sat in the water of a bath sonicator. Sonication was performed on high for 30 minutes to dislodge surviving biofilm. The pegged lid was then removed and discarded.
(§4) 125 μL of OSB was added to each well of the recovery plates to top back up to 225 µL per well. The contents of the wells were mixed by pipetting up and down.

For series [2], the system named is MRSA biofilms. In words: MBEC (turbidity assay), biofilm recovery plate. It is filed as cell-based, Staphylococcus aureus. The note with it: Blue 470 nm (Erythrosin B: Green 527 nm). On the procedure:
as §1, §2, §3, §4

Series [3] concerns MRSA biofilms. Kind of series: Quantitative determination of MBEC (Log10 reduction assay). It is filed as cell-based, Staphylococcus aureus. The note with it: for concentration of optimal efficacy: MRSA biofilm; for Quant. MBEC / log 10 reduction in biofilm CFUs: MRSA; for Quant. MBEC: >4 log10 reduction, PS alone, Blue 470 nm (Erythrosin B: Green 527 nm). The procedure: (§5) One hundred microlitres was removed from each well of row A of the recovery plate into row A of an appropriately labelled 96-well dilution plate; 100 μL was removed from row B of this recovery plate into row A of another 96-well dilution plate. This was repeated for other utilized MBEC rows (total: up to 8 dilution plates per MBEC recovery plate). These plates were kept for the “Quantitative Determination of MBEC (Log10 Reduction Assay)” described below.
(§6) 180 μL of sterile 0.9% saline was added to each well of rows B-H of the 96-well dilution plates prepared as described above. The sample in row A was then serially diluted in the saline in rows B-H and spot plated on OSA.
(§7) The quantitative MBEC was defined as the minimum concentration of test article that yielded a particular log 10 reduction in biofilm CFUs. For MRSA, >4 log 10 reduction (which corresponds to >99.99% reduction); for S. enterica, >3 log 10 reduction (which corresponds to >99.9% reduction) or, where recovery from the VC controls was <3 log 10, “max kill”.
(§8) Quantitative MBEC results were determined using log 10 reduction. Generally, the appropriate number of colonies were counted on the spot plates according to the plating method used. An appropriate number of colonies that was considered appropriate for counting was a 20 μL spot where the individual colonies were visibly distinct from each other within the plated spot (typically 5-50 colonies). The section in which this spot was located gave the order of magnitude for the cell enumeration: 100-107.

Series [4] concerns Salmonella enterica Serotype Choleraesuis (ATCC 10708). Kind of series: Planktonic MBC (turbidity assay), MBEC Assay challenge plate outgrowth. The note with it: S. enterica, PS alone, Blue 470 nm (Erythrosin B: Green 527 nm). It is filed as cell-based.
In series [5] the test system is S. enterica biofilms. Kind of series: Quantitative determination of MBEC (Log10 reduction assay). Conditions: for concentration of optimal efficacy: S. enterica biofilm; for Quant. MBEC / log 10 reduction in biofilm CFUs: S. enterica; for Quant. MBEC: >3 log10 reduction or max kill, PS alone, Blue 470 nm (Erythrosin B: Green 527 nm). It is filed as cell-based, Salmonella enterica. The procedure:
as §5, §6, §7, §8

Series [6] has as its system Staphylococcus aureus (MRSA) 456 S. Yanke. In words: Planktonic MBC (turbidity assay), MBEC Assay challenge plate outgrowth. The note with it: Blue 470 nm (Erythrosin B: Green 527 nm).
The nature of series [7]: Coloration of challenge plates under green irradiation. It is filed as physicochemical. Conditions: green irradiation 2, 5, 10 min vs dark, most evident for 0.01% and 0.001%. The procedure: FIG. 5 provides representative photographs showing coloration of challenge plates for the Green-irradiated PS (Erythrosin B) under dark conditions and with green irradiation for 2 min, 5 min and 10 min. The highest tested concentration of Erythrosin B (i.e., 1% w/v) was beet red in color, with the 1:1,000 dilution (i.e., 0.001% w/v) yielding a light pink color and minimal coloration remaining by the 1:10,000 dilution (i.e., 0.0001% w/V) (FIG. 5; left).

Setting [8] is: fluence 0 (Dark) J/cm^2, PS alone.
[9] abbreviates: Blue-irradiated, tested individually (FIG. 8 Panels A-C).
Setting [10] is: PS at 0.1%, 5 minutes of blue irradiation (51.0 J/cm^2).
The mark [11] stands for this setting: Blue-irradiated, tested individually (FIG. 7 Panels A-C).
[12] abbreviates: PS at 0.01%, 10 minutes of green irradiation (51.0 J/cm^2).
[13] abbreviates: PS at 0.1%, 5 minutes of green irradiation (25.5 J/cm^2).

For the compound `Cc1cc2nc3c(=O)[nH]c(=O)nc-3n(C[C@H](O)[C@H](O)[C@H](O)COP(=O)([O-])O)c2cc1C.[Na+]` [PS1, Riboflavin-5′-Phosphate Sodium USP], the MBEC is given as greater than 1 % w/V in series [1] (setting [8]); greater than 1 % w/V in series [1] (fluence 10.2 J/cm^2, PS alone); greater than 1 % w/V in series [1] (fluence 25.5 J/cm^2, PS alone); greater than 1 % w/V in series [2] (setting [8]); greater than 1 % w/V in series [2] (fluence 10.2 J/cm^2, PS alone); greater than 1 % w/V in series [2] (fluence 25.5 J/cm^2, PS alone). Further, the MBEC in series [2] (fluence 51.0 J/cm^2, PS alone) is 0.1 (Ø) % w/V. In addition, the “concentration of optimal efficacy” value in series [3] (setting [9]) and in series [5] (setting [11]) was 0.1 % w/v each time. For the same compound, the “Quant. MBEC” value was greater than 1 % w/V in series [3] (fluence 0 (Dark) J/cm^2); greater than 1 % w/V in series [3] (fluence 10.2 J/cm^2); greater than 1 % w/V in series [3] (fluence 25.5 J/cm^2); 0.1 % w/V in series [3] (fluence 51.0 J/cm^2); greater than 1 % w/V in series [5] (fluence 0 (Dark) J/cm^2); greater than 1 % w/V in series [5] (fluence 10.2 J/cm^2). In addition, the results for the “Quant. MBEC” value in series [5] (fluence 25.5 J/cm^2) and in series [5] (fluence 51.0 J/cm^2) were greater than 1 % w/V and 0.1 % w/V, respectively. For the same compound, the “log 10 reduction in biofilm CFUs” value in series [3] (setting [10]) is on record as 5.36 log 10; in series [5] (setting [10]) it was “max kill”. The MBC in series [4] (fluence 0 (Dark) J/cm^2) is on record as greater than 1 % w/V; in series [4] (fluence 10.2 J/cm^2), greater than 1 % w/V; in series [4] (fluence 25.5 J/cm^2) it was greater than 1 % w/V; in series [6] (setting [8]), greater than 1 % w/V; in series [6] (fluence 10.2 J/cm^2, PS alone) it was greater than 1 % w/V; in series [6] (fluence 25.5 J/cm^2, PS alone), 0.1 (Ø) % w/V.
On to `O=S(=O)([O-])c1ccc(N=Nc2c(O)ccc3cc(S(=O)(=O)[O-])ccc23)cc1.[Na+].[Na+]` [PS2, Sunset Yellow FCF], for which the MBEC in series [1] (setting [8]) is listed as greater than 1 % w/V; in series [1] (fluence 10.2 J/cm^2, PS alone), greater than 1 % w/V; in series [1] (fluence 25.5 J/cm^2, PS alone), greater than 1 % w/V; in series [2] (setting [8]) it was greater than 1 % w/V; in series [2] (fluence 10.2 J/cm^2, PS alone) it was greater than 1 % w/V; in series [2] (fluence 25.5 J/cm^2, PS alone), greater than 1 % w/V. For the same compound, the figures for the “concentration of optimal efficacy” value in series [3] (setting [9]) and in series [5] (setting [11]) were 0.01 % w/v and 0.001 % w/v, respectively. Moreover, the “Quant. MBEC” value in series [3] (fluence 0 (Dark) J/cm^2) was greater than 1 % w/V; in series [3] (fluence 10.2 J/cm^2), greater than 1 % w/V; in series [3] (fluence 25.5 J/cm^2), greater than 1 % w/V; in series [3] (fluence 51.0 J/cm^2), 0.01 % w/V; in series [5] (fluence 0 (Dark) J/cm^2), greater than 1 % w/V; in series [5] (fluence 10.2 J/cm^2), greater than 1 % w/V. Moreover, the “Quant. MBEC” value is greater than 1 % w/V in series [5] (fluence 25.5 J/cm^2) and 0.001 % w/V in series [5] (fluence 51.0 J/cm^2). Also, the MBC in series [4] (fluence 0 (Dark) J/cm^2) is recorded as greater than 1 % w/V; in series [4] (fluence 10.2 J/cm^2) it was greater than 1 % w/V; in series [4] (fluence 25.5 J/cm^2), greater than 1 % w/V; in series [6] (setting [8]), greater than 1 % w/V; in series [6] (fluence 10.2 J/cm^2, PS alone) it was greater than 1 % w/V; in series [6] (fluence 25.5 J/cm^2, PS alone) it was greater than 1 % w/V.
On to `COc1cc(/C=C/C(=O)CC(=O)/C=C/c2ccc(O)c(OC)c2)ccc1O` [PS3, Curcumin], for which the MBEC is listed as greater than 0.001 % w/V in series [1] (setting [8]); greater than 0.001 % w/V in series [1] (fluence 10.2 J/cm^2, PS alone); greater than 0.001 % w/V in series [1] (fluence 25.5 J/cm^2, PS alone); greater than 0.001 % w/V in series [1] (fluence 51.0 J/cm^2, PS alone); greater than 0.001 % w/V in series [2] (setting [8]); greater than 0.001 % w/V in series [2] (fluence 10.2 J/cm^2, PS alone). The MBEC is recorded as greater than 0.001 % w/V in series [2] (fluence 25.5 J/cm^2, PS alone) and greater than 0.001 % w/V in series [2] (fluence 51.0 J/cm^2, PS alone). Further, the “concentration of optimal efficacy” value amounted to 0.001 % w/v in series [3] (setting [9]) and 0.0001 % w/v in series [5] (setting [11]). Besides, the “Quant. MBEC” value in series [3] (fluence 0 (Dark) J/cm^2) is greater than 0.001 % w/V; in series [3] (fluence 10.2 J/cm^2), greater than 0.001 % w/V; in series [3] (fluence 25.5 J/cm^2), greater than 0.001 % w/V; in series [3] (fluence 51.0 J/cm^2), 0.001 % w/V; in series [5] (fluence 0 (Dark) J/cm^2), greater than 0.001 % w/V; in series [5] (fluence 10.2 J/cm^2), greater than 0.001 % w/V. Further, the “Quant. MBEC” value in series [5] (fluence 25.5 J/cm^2) is given as greater than 0.001 % w/V; in series [5] (fluence 51.0 J/cm^2), 0.0001 % w/V. Moreover, the MBC in series [4] (fluence 0 (Dark) J/cm^2) is greater than 0.001 % w/V; in series [4] (fluence 10.2 J/cm^2), greater than 0.001 % w/V; in series [4] (fluence 25.5 J/cm^2), greater than 0.001 % w/V; in series [4] (fluence 51.0 J/cm^2), greater than 0.001 % w/V; in series [6] (setting [8]) it was greater than 0.001 % w/V; in series [6] (fluence 10.2 J/cm^2, PS alone), greater than 0.001 % w/V. For the same compound, the MBC in series [6] (fluence 25.5 J/cm^2, PS alone) is greater than 0.001 % w/V.
Take `O=C1OC2(c3ccccc31)c1cc(I)c(O)c(I)c1Oc1c2cc(I)c(O)c1I` [PS4, Erythrosin B]: the coloration upon irradiation result in series [7] is reported as “lost coloration with increasing irradiation time”. The MBEC in series [1] (setting [8]) was greater than 1 % w/V; in series [1] (fluence 10.2 J/cm^2, PS alone), 0.01 (Ø) % w/V; in series [1] (fluence 25.5 J/cm^2, PS alone), 0.01 (Ø) % w/V; in series [2] (setting [8]), greater than 1 % w/V. The “concentration of optimal efficacy” value is 0.01% in series [3] (Green irradiation, 10.2 J/cm^2 (FIG. 9)); 0.1% in series [3] (Green irradiation, 25.5 J/cm^2 (FIG. 9)); 0.01% in series [5] (Green irradiation, 51.0 J/cm^2 (FIG. 9)). The “Quant. MBEC” value in series [3] (fluence 0 (Dark) J/cm^2) is greater than 1 % w/V; in series [3] (fluence 10.2 J/cm^2) it was 0.01 % w/V; in series [5] (fluence 0 (Dark) J/cm^2), greater than 1 % w/V; in series [5] (fluence 10.2 J/cm^2) it was greater than 1 % w/V; in series [5] (fluence 25.5 J/cm^2), 0.1 % w/V; in series [5] (fluence 51.0 J/cm^2), 0.01 % w/V. The “log 10 reduction in biofilm CFUs” value in series [3] (setting [12]) is reported as “max kill”; in series [3] (setting [13]) it was 5.28 log 10; in series [5] (setting [12]), “max kill”; in series [5] (setting [13]) it was “max kill”. Moreover, the values for the MBC in series [4] (fluence 0 (Dark) J/cm^2) and in series [4] (fluence 10.2 J/cm^2) were greater than 1 % w/V and 0.01 (Ø) % w/V, respectively.
